This is an account of results in US9474790B2, “Stable, protracted GLP-1/glucagon receptor co-agonists for medical use” (Novo Nordisk A/S, priority 2013, dated 2016).

SMILES strings stand for the structures. Numbered stars: 1 amine (or outer) side, 2 acyl side, 3 side chain; on linkers, the order of the positions; unused ones are H or OH. Square brackets hold non-standard residues; d marks the D form. Side chains are listed from the residue outwards. Peptide text beside a SMILES is read from it. * marks the point of attachment. C18 diacid = O=C(O)CCCCCCCCCCCCCCCCC(=O)*; γGlu = O=C(O)[C@H](CCC(=O)[*:2])N[*:1]; AEEA = NCCOCCOCC(=O)O; Aib = CC(C)(N)C(=O)O

The series can be described thus: Thioflavin T (ThT) fibrillation assay for physical stability. As to conditions: 250 μM in 10 mM HEPES buffer, pH 7.5, 37° C., shaking 960 rpm. In kind it is physicochemical. An excerpt:
The purpose of this assay was to assess the physical stability of the glucagon derivatives of the invention in aqueous solutions.
Low physical stability of a peptide may lead to amyloid fibril formation, which is observed as well-ordered, thread-like macromolecular structures in the sample, which eventually may lead to gel formation. This has traditionally been measured by visual inspection of the sample. However, that kind of measurement is very subjective and depending on the observer. Therefore, the application of a small molecule indicator probe is much more advantageous. Thioflavin T (ThT) is such a probe and has a distinct fluorescence signature when binding to fibrils [Naiki et al; Anal. Biochem. 1989 177 244-249; LeVine; Methods. Enzymol. 1999 309 274-284].
The time course for fibril formation can be described by a sigmoidal curve with the following expression [Nielsen et al; Biochemistry 2001 40 6036-6046]:
Here, as depicted in FIG. 1, F is the ThT fluorescence at the time t. The constant t0 is the time needed to reach 50% of maximum fluorescence. The two important parameters describing fibril formation are the lag-time calculated by t0−2τ and the apparent rate constant kapp 1/τ.
Samples were prepared freshly before each assay. Each sample composition is described in the legends. The pH of the sample was adjusted to the desired value using appropriate amounts of concentrated NaOH and HCl. Thioflavin T was added to the samples from a stock solution in H2O to a final concentration of 1 μM.
Sample aliquots of 200 μl (250 μM of the glucagon derivative/analogue in 10 mM HEPES buffer, pH 7.5) were placed in a 96 well microtiter plate (Packard OptiPlate™-96, white polystyrene). Usually, four or eight replica of each sample (corresponding to one test condition) were placed in one column of wells. The plate was sealed with Scotch Pad (Qiagen).
Incubation at given temperature, shaking and measurement of the ThT fluorescence emission were done in a Fluoroskan Ascent FL fluorescence plate reader (Thermo Labsystems). The temperature was set to 37° C. and the plate was incubated with orbital shaking adjusted to 960 rpm with an amplitude of 1 mm. Fluorescence measurement was done using excitation through a 444 nm filter and measurement of emission through a 485 nm filter.
Each run was initiated by incubating the plate at the assay temperature for 10 min. The plate was measured every 20 minutes for a desired period of time. Between each measurement, the plate was shaken and heated as described.
After completion of the ThT assay the four or eight replica of each sample was pooled and centrifuged at 20000 rpm for 30 minutes at 18° C. The supernatant was filtered through a 0.22 μm filter and an aliquot was transferred to a HPLC vial.
The concentration of peptide in the initial sample and in the filtered supernatant was determined by reverse phase HPLC using an appropriate standard as reference. The percentage fraction the concentration of the filtered sample constituted of the initial sample concentration was reported as the recovery.
The measurement points were saved in Microsoft Excel format for further processing and curve drawing and fitting was performed using GraphPad Prism. The background emission from ThT in the absence of fibrils was negligible. The data points were typically a mean of four or eight samples.
The data set may be fitted to Eq. (1).
`CC(C)C[C@H](NC(=O)[C@H](Cc1ccc(O)cc1)NC(=O)[C@H](CCCCN)NC(=O)[C@H](CO)NC(=O)[C@H](CC(C)C)NC(=O)[C@H](CC(=O)O)NC(=O)[C@H](CO)NC(=O)[C@@H](NC(=O)[C@H](Cc1ccccc1)NC(=O)[C@@H](NC(=O)CNC(=O)[C@H](CCC(N)=O)NC(=O)C(C)(C)NC(=O)[C@@H](N)Cc1c[nH]cn1)[C@@H](C)O)[C@@H](C)O)C(=O)N[C@@H](CC(=O)O)C(=O)N[C@@H](CCCCNC(=O)CC[C@H](NC(=O)CC[C@H](NC(=O)COCCOCCNC(=O)COCCOCCNC(=O)CC[C@H](NC(=O)CCCCCCCCCCCCCCCCC(=O)O)C(=O)O)C(=O)O)C(=O)O)C(=O)N[C@@H](CCCCN)C(=O)N[C@@H](CCCNC(=N)N)C(=O)N[C@@H](C)C(=O)N[C@@H](CCC(N)=O)C(=O)N[C@@H](CCC(=O)O)C(=O)N[C@@H](Cc1ccccc1)C(=O)N[C@H](C(=O)N[C@@H](CCC(N)=O)C(=O)N[C@@H](Cc1c[nH]c2ccccc12)C(=O)N[C@@H](CC(C)C)C(=O)N[C@@H](CC(C)C)C(=O)N[C@@H](CC(N)=O)C(=O)N[C@H](C(N)=O)[C@@H](C)O)C(C)C` [Example 7, N^ε16-[(4S)-4-carboxy-4-[[(4S)-4-carboxy-4-[[2-[2-[2-[[2-[2-[2-[[(4S)-4-carboxy-4-(17-carboxyheptadecanoylamino)butanoyl]amino]ethoxy]ethoxy]acetyl]amino]ethoxy]ethoxy]acetyl]amino]butanoyl]amino]butanoyl]-[Aib2,Leu10,Lys16,Lys17,Glu21,Leu27]-Glucagon amide] (H-H[Aib]QGTFTSDLSKYLDK([γGlu-γGlu-AEEA-AEEA-γGlu-C18 diacid])KRAQEFVQWLLNT-NH2; N-terminus assumed) showed a THT assay Lag time (Ex. 76) of 45 h.

The molecule `CC(C)C[C@H](NC(=O)[C@H](Cc1c[nH]c2ccccc12)NC(=O)[C@H](C)NC(=O)[C@@H](NC(=O)[C@H](Cc1ccccc1)NC(=O)[C@H](CCC(=O)O)NC(=O)[C@H](CCCNC(=N)N)NC(=O)[C@H](C)NC(=O)[C@H](C)NC(=O)[C@H](CCCNC(=N)N)NC(=O)[C@H](CCCCNC(=O)CC[C@H](NC(=O)CC[C@H](NC(=O)COCCOCCNC(=O)COCCOCCNC(=O)CC[C@H](NC(=O)CCCCCCCCCCCCCCCCC(=O)O)C(=O)O)C(=O)O)C(=O)O)NC(=O)[C@H](CC(=O)O)NC(=O)[C@H](CC(C)C)NC(=O)[C@H](Cc1ccc(O)cc1)NC(=O)[C@H](CCCCN)NC(=O)[C@H](CO)NC(=O)[C@H](CC(C)C)NC(=O)[C@H](CC(=O)O)NC(=O)[C@H](CO)NC(=O)[C@@H](NC(=O)[C@H](Cc1ccccc1)NC(=O)[C@@H](NC(=O)CNC(=O)[C@H](CCC(N)=O)NC(=O)C(C)(C)NC(=O)[C@@H](N)Cc1c[nH]cn1)[C@@H](C)O)[C@@H](C)O)C(C)C)C(=O)N[C@@H](CC(C)C)C(=O)N[C@@H](CC(N)=O)C(=O)N[C@H](C(N)=O)[C@@H](C)O` [Example 18, N^ε29-[(4S)-4-carboxy-4-[[(4S)-4-carboxy-4-[[2-[2-[2-[[2-[2-[2-[[(4S)-4-carboxy-4-(17-carboxyheptadecanoylamino)butanoyl]amino]ethoxy]ethoxy]acetyl]amino]ethoxy]ethoxy]acetyl]amino]butanoyl]amino]butanoyl]-[Aib2,Leu10,Lys16,Ala18,Arg20,Glu21,Ala-24,Leu27]-Glucagon amide] (H-H[Aib]QGTFTSDLSKYLDK([γGlu-γGlu-AEEA-AEEA-γGlu-C18 diacid])RAAREFVAWLLNT-NH2; N-terminus assumed) yielded a THT assay Lag time (Ex. 76) of 45 h.

As for `CC(C)C[C@H](NC(=O)[C@H](Cc1c[nH]c2ccccc12)NC(=O)[C@H](C)NC(=O)[C@@H](NC(=O)[C@H](Cc1ccccc1)NC(=O)[C@H](CCC(=O)O)NC(=O)[C@H](CCCNC(=N)N)NC(=O)[C@H](C)NC(=O)[C@H](CCCNC(=N)N)NC(=O)[C@H](CCCNC(=N)N)NC(=O)[C@H](CCCCNC(=O)CC[C@H](NC(=O)COCCOCCNC(=O)COCCOCCNC(=O)CC[C@H](NC(=O)CC[C@H](NC(=O)CCCCCCCCCCCCCCCCC(=O)O)C(=O)O)C(=O)O)C(=O)O)NC(=O)[C@H](CCC(=O)O)NC(=O)[C@H](CC(C)C)NC(=O)[C@H](Cc1ccc(O)cc1)NC(=O)[C@H](CCCCN)NC(=O)[C@H](CO)NC(=O)[C@H](CC(C)C)NC(=O)[C@H](CC(=O)O)NC(=O)[C@H](CO)NC(=O)[C@@H](NC(=O)[C@H](Cc1ccccc1)NC(=O)[C@@H](NC(=O)CNC(=O)[C@H](Cc1c[nH]cn1)NC(=O)C(C)(C)NC(=O)[C@@H](N)Cc1c[nH]cn1)[C@@H](C)O)[C@@H](C)O)C(C)C)C(=O)N[C@@H](CC(C)C)C(=O)N[C@@H](CO)C(=O)N[C@H](C(N)=O)[C@@H](C)O` [Example 32, N^ε16-[(4S)-4-carboxy-4-[[2-[2-[2-[[2-[2-[2-[[(4S)-4-carboxy-4-[[(4S)-4-carboxy-4-(17-carboxyheptadecanoylamino)butanoyl]amino]butanoyl]amino]ethoxy]ethoxy]acetyl]amino]ethoxy]ethoxy]acetyl]amino]butanoyl]-[Aib2,His3,Leu10,Glu15,Lys16,Arg20,Glu21,Ala24, Leu27,Ser28]-Glucagon amide] (H-H[Aib]HGTFTSDLSKYLEK([γGlu-AEEA-AEEA-γGlu-γGlu-C18 diacid])RRAREFVAWLLST-NH2; N-terminus assumed), the THT assay Lag time (Ex. 76) amounted to 45 h.
